The assay deals with MM cell lines. Description: effect of dasatinib on cell viability of MM cell lines. It is filed as cell-based. The note with it: Homo sapiens; in 8/15 MM cell lines tested. The text has this:
FIG. 1 illustrates results obtained on the effect of dasatinib at varying concentrations on the cell viability of certain MM cell lines.
Described herein are studies on the oral, multi-targeted kinase inhibitor dasatinib (BMS-354825, Bristol-Myers Squibb Co.) which inhibits BCR-ABL, SRC, c-KIT, PDGF-R, and ephrin (EPH) receptor kinases. Although BCR-ABL and c-KIT are not primary oncogenes driving MM proliferation and survival, dasatinib was studied because of (a) emerging data from our laboratory (CS Mitsiades, unpublished observations) on the expression patterns of EPH receptors in MM cell lines and primary tumor specimens; and (b) the roles of PDGF-R and SRC in tumor-microenvironment interactions, e.g., pericyte function in angiogenesis and osteoclast-mediated bone resorption, respectively.
Dasatinib is active against human MM cells which are resistant to conventional or other investigational treatments. […] For those cell lines highly responsive to dasatinib, their IC50 was in a range of concentrations which are deemed clinically achievable levels (based on data derived from the ongoing clinical trials of this compound in other disease setting).

Each structure is given as a SMILES string. Some results are limits rather than exact numbers.

As for `Cc1nc(Nc2ncc(C(=O)Nc3c(C)cccc3Cl)s2)cc(N2CCN(CCO)CC2)n1` [dasatinib], the IC50 is below 100 nM.

One may read the IC50 as the midpoint of a concentration-inhibition curve.

Values taken from patent US20100286090A1, “Treatment of Multiple Myeloma” (BRISTOL-MYERS SQUIBB COMPANY, priority 2005, published 2010).
